The text below walks through data of patent publication US20180209966A1, “FLUORESCENCE POLARIZATION IMMUNOASSAY METHOD FOR DETECTING CARBARYL” (priority 2017, published 2018).

Holding throughout (format): binding, BALB/c mice
Assay [1] relates to anti-carbaryl monoclonal antibody secreted by the hybridoma cell line Jnw1D2. Kind of assay: indirect competitive ELISA characterisation of the anti-carbaryl monoclonal antibody (IC50, cross reaction). As to conditions: with anti-carbaryl monoclonal antibody. An excerpt: 2-3 weeks after cell fusion, when the cell colonies grew up to be visually visible, the clones were picked out from the culture medium with a micropipette, transferred to a 96-well cell culture plate and cultured in HAT liquid. When the cells grew to cover ⅔ of the bottom of the well, the culture supernatant was aspirated for testing. A two-step screening method was adopted. In the first step, indirect ELISA method was used to screen out the positive wells against carbaryl, but not the carrier protein BSA. In the second step, indirect competitive ELISA method was used for testing the positive wells screened out in the first step with carbaryl as a competitor. Wells with high absorbance and sensitivity were chosen (where the high absorbance means a high final value determined in the well where the competitor is 0, i.e., the positive control well, and the high sensitivity means a low concentration, i.e. the IC50, of the competitor achieving 50% inhibition). The cells were subcloned by limiting dilution analysis, and then detected by the two-step method as described above. After 4-5 rounds of repeated subcloning, a hybridoma cell line Jnw1D2 was obtained, which was deposited in China Center for Type Culture Collection (CCTCC) (Wuhan University, Wuhan, China) under the CCTCC Accession No: C201654.
The subtype of the anti-carbaryl monoclonal antibody secreted by the hybridoma cell line Jnw1D2 was identified as IgG2b by using a commercial subtype identification kit. The titer of the antibody was 1.6×10^4 measured by enzyme-linked immunosorbent assay (ELISA).
A general note: ELISA stands for enzyme-linked immunosorbent assay.

Assay [2] relates to anti-carbaryl monoclonal antibody. Nature of the assay: competitive FPIA carbaryl standard curve in borate buffer solution. As to conditions: 10% methanol, 10 min. On the procedure: Step 2: First, the working concentration of each fluorescent marker was set to a corresponding fluorescent marker concentration (5 nM) when the fluorescence intensity was 10 times of the background fluorescence intensity of the BB solution (borate buffer solution). With a corresponding antibody dilution factor when 70% of the anti-carbaryl monoclonal antibody binds to the fluorescent marker (1 μg/mL), the carbaryl detection standard curve of different markers was established and the IC50 was calculated. The optimum fluorescent marker was decided based on the IC50 value of each standard curve. […]
9 concentration gradients of carbaryl standards of 100 μg/mL, 10 μg/mL, 1 μg/mL, 0.5 μg/mL, 0.1 μg/mL, 0.05 μg/mL, 0.01 μg/mL, 0.005 μg/mL and 0.001 μg/mL were formulated with 10% methanol in a borate buffer solution, and each 50 μL of the carbaryl standards, 500 μL fluorescent marker of working concentration (5 nM), and 500 μL anti-carbaryl monoclonal antibody of the working concentration (1 μg/mL) were added to a reaction tube, and incubated at room temperature in the dark for 10 min. Then the fluorescence polarization value was measured at an excitation wavelength of 485 nm and an emission wavelength of 530 nm, with a cutoff of 515 nm. […]

The test system is the same in assay [3]. Nature of the assay: competitive FPIA carbaryl standard curve in strawberry sample matrix. To be noted: 25° C., 5 min. On the procedure: Step 1: 20.0 g of the blank strawberry sample (which was determined to be carbaryl free by LC) was weighed and added to 20.0 mL acetonitrile, homogenized for 2 min at a high speed, filtered into a 50 mL centrifuge tube containing 4 g of sodium chloride, shaken vigorously for 3 min, and centrifuged at 5000 g for 2 min. 10 mL of the supernatant extract was aspirated to a beaker, heated in a water bath at 80° C., and evaporated to almost dryness while nitrogen was introduced into the beaker. 10 mL of methanol was added to dissolve the sample residue, to obtain a sample matrix solution. 9 concentration gradients of carbaryl standards of 100 μg/mL, 10 μg/mL, 1μg/mL, 0.5 μg/mL, 0.1 μg/mL, 0.05 μg/mL, 0.01 μg/mL, 0.005 μg/mL and 0.001 μg/mL were formulated with the sample matrix solution. Each 50 μL of the carbaryl standard solution in the sample matrix solution, 500 μL fluorescent marker solution and 500 μL anti-carbaryl monoclonal antibody solution were added and incubated at 25° C. for 5 min. Then FPIA detection was conducted. According to the correlation between the fluorescence polarization signal and the concentration of the carbaryl standard, a standard curve for carbaryl detection in the strawberry sample was obtained, as shown in FIG. 2. The detection sensitivity of carbaryl in the strawberry matrix is 108.6 μg/kg and the detection range is 32.4-363.6 μg/kg. […]

`CNC(=O)O/N=C/C(C)(C)SC` [aldicarb]: the cross reaction result in assay [1] is “no cross reaction”. Consider `CNC(=O)Oc1cccc2ccccc12` [carbaryl], for which, in assay [2], the “sensitivity of the standard curve” value turned out to be 82.3 ng/mL. The same compound had a detection sensitivity in assay [3] of 108.6 µg/kg. In the case of `CNC(=O)Oc1cccc2c1OC(C)(C)C2` [carbofuran], the cross reaction result in assay [1] is reported as “no cross reaction”. The same measure, in the same setting: under `CNC(=O)ON=C(C)SC` [methomyl] stands “no cross reaction”.
